Source: US12697343B2, “Intravenous istaroxime for the treatment of acute heart failure” (Seismic Pharmaceuticals Operations LLC, priority 2021, dated 2026)
Structures can show the parent of a compound that is named as a salt. Where two headings read alike, the source gives them in different places.

Columns and labels:
[1] = test system: patients hospitalized for acute heart failure (AHF); test: Clinical secondary endpoints: in-hospital worsening heart failure to day 4, readmissions/ED visits to day 30, length of stay; type: in vivo, human
Description: (§1) The primary efficacy endpoint was the change from baseline to 24 h after the start of the infusion in the E/e ratio assessed by tissue Doppler echocardiography. Secondary endpoints included the change from baseline to 24 h of other echocardiography parameters: LVEF, left ventricular end-systolic and end-diastolic volumes, stroke volume index, E, A, E/A ratio, and S′: changes in dyspnoea by visual analogue scale (VAS) and in NT-proBNP from baseline to 24 h: proportion of patients with hospital readmissions or emergency visits for cardiovascular reasons by day 30; proportion of patients with episodes of in-hospital worsening heart failure to day 4, and length of stay. In-hospital worsening heart failure was defined by the need to increase the dose or reinitiate intravenous therapy with diuretics and/or other inotropic agents to day 4. Safety endpoints were assessed throughout the study and included: incidence of adverse events (AEs): change in vital signs and in 12-lead electrocardiographic (ECG) parameters: incidence of clinically or haemodynamically significant episodes of supraventricular or ventricular arrhythmias detected by continuous ECG monitoring: standard laboratory parameters: renal function: cardiac troponin T (cTnT): incidence of cTnT elevations, and mortality at day 30. Elevations in cTnT were considered significant if they were >50% or >20% from baseline values, for patients with cTnT below or above the 99% upper reference limit at baseline, respectively.
The study was designed as a mechanistic and safety study to assess the effects of a 24 h istaroxime infusion in patients hospitalized for AHF. Based on the changes observed in the HORIZON-HF trial, we assumed that a sample size of at least 20 patients in the placebo group in each cohort with 2:1 randomization to istaroxime would provide sufficient power to assess the effect of istaroxime on the main haemodynamic parameters. Analyses were conducted using a pre-specified modified intention-to-treat (mITT) protocol, including all randomized patients in whom study drug infusion had been initiated and with at least […] available evaluation of efficacy after the baseline. Biomarker and eGFR values were analyzed using medians and inner/outer quartiles, and active treatment was compared to placebo using the Wilcoxon rank-sum test. Dyspnoea scores by VAS were analyzed using mixed model regression with treatment, center, time point, gender, baseline cTnT, presence of atrial fibrillation, treatment by time point interaction, baseline value, and baseline value by time point interaction in the model. Echocardiographic parameters were compared between treatment groups using linear regression with treatment in the model. Categorical variables were summarized as frequency and percent and compared between treatment groups using the Cochran-Mantel-Haenszel test, controlling for study site. AEs were recorded for all enrolled patients and were summarized as AEs, serious AEs (SAEs), AEs leading to discontinuation, and SAEs leading to death. All analyses were conducted using the SAS® System for Windows™, versions 9.1.3 and 9.4.

[2] = test system: patients hospitalized for acute heart failure (AHF); set-up: species or system human; conditions: in vivo
Description: as §1, with “Elevations in cTnT were considered significant if they were >50% or >20% from baseline values, for patients with cTnT below or above the 99% upper reference limit at baseline, respectively.” left out

[3] = test system: patients hospitalized for acute heart failure (AHF); set-up: species or system human; conditions: in vivo; remark: listed apart in the source
Description: as §1, with “In-hospital worsening heart failure was defined by the need to increase the dose or reinitiate intravenous therapy with diuretics and/or other inotropic agents to day 4.” left out, “Elevations in cTnT were considered significant if they were >50% or >20% from baseline values, for patients with cTnT below or above the 99% upper reference limit at baseline, respectively.” left out
The study design included a 24 h screening period, a 24 h study drug infusion phase (day 1), a post-treatment phase (days 2-4), and a follow-up visit at day 30 (FIG. 5). […] AEs were monitored throughout the duration of the study.

[4] = test system: patients hospitalized for acute heart failure (AHF); test: Adverse events, serious adverse events, laboratory safety and mortality to day 30; type: in vivo, human
Description: as §1
The study design included a 24 h screening period, a 24 h study drug infusion phase (day 1), a post-treatment phase (days 2-4), and a follow-up visit at day 30 (FIG. 5). Patients could be enrolled at any time after admission. The use of oral medications was permitted during the study with the exception of digoxin. Intravenous diuretics were permitted during the treatment period at stable doses, unless changes were required due to clinically relevant variations of the patient's condition. If treatment with an inotrope was clinically necessary during the infusion period, the investigational product was discontinued. Echocardiography was performed according to international standards at screening, baseline (just before starting study drug infusion), 6, 24 h (just before infusion end), and 48 h after infusion start. Echocardiographic measurements at baseline, 6, 24, and 48 h were evaluated in a blinded fashion by a CoreLab located at the University and Civil Hospital of Brescia, Italy. E/e′ ratio was calculated as the ratio between the peak early diastolic mitral flow velocity (E wave) and the mean of the annular lateral (e′ lateral) and septal (e′ septal) velocities, according to standard guidelines.^20 Intraobserver and interobserver variability in E/e′ measurement was tested on the 15% of the recordings and is shown in FIG. 6. Self-reported dyspnoea was assessed using a 100 mm VAS, with zero representing the worst level of dyspnoea and 10 the best breathing condition. […] Serial measurements of NT-proBNP throughout the study were analyzed by a central laboratory (Elecsys® proBNP II, Roche®, Basel, Switzerland). Samples for cTnT were taken at baseline, 3, 6, 12, 24, 48, and 72 h and on day 30, and were analyzed by a core laboratory (Elecsys® high-sensitivity assay, Roche®, Basel, Switzerland). AEs were monitored throughout the duration of the study. […]

[5] = test system: patients hospitalized for acute heart failure (AHF); conditions: intention-to-treat analysis, Carubelli et al., cited from earlier work
[6] = intravenous infusion; cited from earlier work
[7] = test system: dogs with chronic ischemic heart failure; conditions: cited from earlier work
[8] = istaroxime 1.0 μg/Kg/min (n = 40), 30-day follow-up period

C[C@]12CCC(=NOCCN)C[C@@H]1C(=O)C[C@@H]1[C@@H]2CC[C@]2(C)C(=O)CC[C@@H]12 [Istaroxime, (E,Z)-3-((2-aminoethoxy)imino)androstane-6,17-dione hydrochloride]
Length of stay, median ([1]; 0.5 μg/Kg/min): 7.0 days
Hospital readmission/ED visits to Day 30, count of patients ([1]; 0.5 μg/Kg/min (n = 41)): 4
Hospital readmission/ED visits to Day 30, percent of patients ([1]; 0.5 μg/Kg/min (n = 41)): (9.8%)
Worsening heart failure to day 4, count of patients ([1]; 0.5 μg/Kg/min (n = 41)): 1
Worsening heart failure to day 4, percent of patients ([1]; 0.5 μg/Kg/min (n = 41)): (2.4%)
Length of stay, median ([1]; 1.0 μg/Kg/min): 7.0 days
Hospital readmission/ED visits to Day 30, count of patients ([1]; 1.0 μg/Kg/min (n = 40)): 4
Hospital readmission/ED visits to Day 30, percent of patients ([1]; 1.0 μg/Kg/min (n = 40)): (10%)
Worsening heart failure to day 4, count of patients ([1]; 1.0 μg/Kg/min (n = 40)): 3
Worsening heart failure to day 4, percent of patients ([1]; 1.0 μg/Kg/min (n = 40)): (7.5%)
Renal function measured by eGFR [2]: generally increased
clinically significant arrhythmias, 24 h Holter monitoring [3]: no differences
Mortality within the 30-day study period ([4]; 1.0 μg/kg/min group, cardiogenic shock): One patient died
rate of SAEs ([4]; in vivo): did not show meaningful differences
rate of injection site reactions ([4]; in vivo, iv): high
Serious adverse events: Cardiac death [4, 8]: 1 number of patients
Serious adverse events: Cardiac death, percent of patients [4, 8]: (2.5) %
mean change in E/e′ ratio at 24 h ([5]; 0.5 μg/kg/min): −4.55 (4.75)
mean change in E/e′ ratio at 24 h ([5]; 1.0 μg/kg/min): −3.16 (2.59)
half-time (washout after infusion termination) [6]: 60 min
myocardial relaxation (e′ diastolic velocity, tissue Doppler) ([7]; compared to dobutamine): improved myocardial relaxation
peak heart rate ([7]; compared with dobutamine): significantly lower
